Measured values published in ChEMBL document CHEMBL1201862, “PubChem BioAssay data set” (2004).
The source made the active and inactive calls.

Columns and labels:
[1] = test system: Streptococcus sp. 'group A'; experiment: Streptococcus pyogenes SK(-)GAS viability under kanamycin – luminescence, BacTiterGlo, confirmation, counter-screen for streptokinase expression inhibitor project, dose response (AID 1900); assay type: functional, organism-based
Streptococcus = experiment: GAS UMAA2166 growth inhibition – luminescence, BacTiterGlo, counter-screen for streptokinase expression inhibitor project, dose response (AID 1915); assay type: functional, organism-based;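 also: potency for reduction of bacterial viability or growth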
[2] = molecular target: Photoreceptor-specific nuclear receptor (Homo sapiens, UniProt Q9Y5X4); assay type: functional, cell-based;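 also: CHO-S cells with Gal4-NCOR and VP16-NR2E3 two-hybrid luciferase reporter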
Photoreceptor-specific nuclear receptor, sequence (Q9Y5X4 whole entry, the tested form may be a part): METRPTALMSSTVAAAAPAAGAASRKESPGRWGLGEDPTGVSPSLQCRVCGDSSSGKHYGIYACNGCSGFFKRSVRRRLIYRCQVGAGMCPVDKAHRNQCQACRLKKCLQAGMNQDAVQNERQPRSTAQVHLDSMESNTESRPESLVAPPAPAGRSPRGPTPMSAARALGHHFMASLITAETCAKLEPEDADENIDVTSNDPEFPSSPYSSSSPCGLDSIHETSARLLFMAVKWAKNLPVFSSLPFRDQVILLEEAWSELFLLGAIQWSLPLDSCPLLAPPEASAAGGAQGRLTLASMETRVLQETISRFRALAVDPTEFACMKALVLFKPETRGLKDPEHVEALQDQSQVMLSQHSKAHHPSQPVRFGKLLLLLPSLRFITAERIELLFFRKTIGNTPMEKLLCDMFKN

[3] = molecular target: T1, Sentrin-specific protease 1 (Homo sapiens, UniProt Q9P0U3); experiment: SENP1 catalytic domain blockers, concentration series – biochemical, kinetic FRET, dose response (AID 651697); assay type: functional; settings: read-out: IC50_Mean
T1 sequence (Q9P0U3 whole entry): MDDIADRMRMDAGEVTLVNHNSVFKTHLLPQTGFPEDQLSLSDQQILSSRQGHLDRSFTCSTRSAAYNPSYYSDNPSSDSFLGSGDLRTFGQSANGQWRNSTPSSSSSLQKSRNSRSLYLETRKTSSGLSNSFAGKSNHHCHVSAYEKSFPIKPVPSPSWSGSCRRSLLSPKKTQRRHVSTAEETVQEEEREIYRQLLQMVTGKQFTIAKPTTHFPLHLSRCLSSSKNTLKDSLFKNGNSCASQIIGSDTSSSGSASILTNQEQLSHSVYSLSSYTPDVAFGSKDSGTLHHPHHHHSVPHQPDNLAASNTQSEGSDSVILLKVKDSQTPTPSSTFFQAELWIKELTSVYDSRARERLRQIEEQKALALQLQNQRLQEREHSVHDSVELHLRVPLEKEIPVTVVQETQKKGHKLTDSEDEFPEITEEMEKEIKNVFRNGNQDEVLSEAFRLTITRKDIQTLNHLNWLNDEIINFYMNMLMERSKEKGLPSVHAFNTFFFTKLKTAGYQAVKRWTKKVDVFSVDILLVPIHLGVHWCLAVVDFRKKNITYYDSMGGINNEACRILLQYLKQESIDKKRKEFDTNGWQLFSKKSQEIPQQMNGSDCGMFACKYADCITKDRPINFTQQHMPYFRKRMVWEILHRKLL

[4] = molecular target: T1, Sentrin-specific protease 1; experiment: Dose response confirmation of small molecule inhibitors of the catalytic domain of the SUMO protease, SENP1 in a FRET assay.; assay type: functional; settings: read-out: IC50_Mean
[5] = loss of viability in HepG2 cells – cell-based, CellTiter-Glo, cherry-picked, cytotoxicity control for Shn3 inhibitor project, dose response (AID 624134); assay type: functional
[6] = non-specific 3'UTR reporter inhibition in Clone20-Shn3RL – cell-based, Renilla luciferase, cherry-picked, counter-screen for Shn3 inhibitor project, dose response (AID 624133); assay type: functional
Protein Wnt-3a = Protein Wnt-3a (Mus musculus, UniProt P27467); experiment: antagonism of Wnt3a pathway luciferase reporter – Wnt-LIGHT cells, luminescence, selectivity assay for Gli-SUFU antagonist project, dose response (AID 651570); assay type: functional; settings: read-out: IC50_Mean;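 also: Wnt-LIGHT reporter cells stimulated with conditioned medium from Wnt3a-producing cells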
Protein Wnt-3a, sequence (P27467 whole entry): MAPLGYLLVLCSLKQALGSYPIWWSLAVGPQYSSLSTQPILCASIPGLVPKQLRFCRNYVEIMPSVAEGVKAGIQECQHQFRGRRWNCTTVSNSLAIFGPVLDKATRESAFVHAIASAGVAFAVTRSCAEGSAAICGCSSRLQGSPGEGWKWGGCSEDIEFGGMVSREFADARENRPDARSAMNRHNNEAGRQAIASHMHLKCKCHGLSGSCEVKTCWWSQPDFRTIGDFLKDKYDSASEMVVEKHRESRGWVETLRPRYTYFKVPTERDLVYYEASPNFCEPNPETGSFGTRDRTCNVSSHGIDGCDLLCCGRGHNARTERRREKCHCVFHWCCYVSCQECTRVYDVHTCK

[7] = molecular target: 26S proteasome non-ATPase regulatory subunit 14 (Homo sapiens, UniProt O00487); experiment: inhibition of proteasome subunit RPN11 – biochemical, fluorescence polarization, uHTS hits, confirmation (AID 602368); assay type: functional
26S proteasome non-ATPase regulatory subunit 14, sequence (O00487 whole entry): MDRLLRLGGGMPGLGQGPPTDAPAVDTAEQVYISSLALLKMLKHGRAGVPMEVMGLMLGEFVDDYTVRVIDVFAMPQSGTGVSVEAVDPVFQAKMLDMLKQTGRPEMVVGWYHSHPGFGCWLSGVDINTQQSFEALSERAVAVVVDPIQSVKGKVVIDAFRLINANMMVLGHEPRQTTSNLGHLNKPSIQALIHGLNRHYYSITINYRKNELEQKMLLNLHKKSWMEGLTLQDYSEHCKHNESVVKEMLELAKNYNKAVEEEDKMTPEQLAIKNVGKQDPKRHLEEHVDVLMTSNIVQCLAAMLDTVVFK

[8] = molecular target: 72 kDa type IV collagenase (Homo sapiens, UniProt P08253); experiment: Dose Response validation of uHTS RPN11 inhibitor hits using a MMP-2 Fluorescence assay.; assay type: functional
72 kDa type IV collagenase, sequence (P08253 whole entry): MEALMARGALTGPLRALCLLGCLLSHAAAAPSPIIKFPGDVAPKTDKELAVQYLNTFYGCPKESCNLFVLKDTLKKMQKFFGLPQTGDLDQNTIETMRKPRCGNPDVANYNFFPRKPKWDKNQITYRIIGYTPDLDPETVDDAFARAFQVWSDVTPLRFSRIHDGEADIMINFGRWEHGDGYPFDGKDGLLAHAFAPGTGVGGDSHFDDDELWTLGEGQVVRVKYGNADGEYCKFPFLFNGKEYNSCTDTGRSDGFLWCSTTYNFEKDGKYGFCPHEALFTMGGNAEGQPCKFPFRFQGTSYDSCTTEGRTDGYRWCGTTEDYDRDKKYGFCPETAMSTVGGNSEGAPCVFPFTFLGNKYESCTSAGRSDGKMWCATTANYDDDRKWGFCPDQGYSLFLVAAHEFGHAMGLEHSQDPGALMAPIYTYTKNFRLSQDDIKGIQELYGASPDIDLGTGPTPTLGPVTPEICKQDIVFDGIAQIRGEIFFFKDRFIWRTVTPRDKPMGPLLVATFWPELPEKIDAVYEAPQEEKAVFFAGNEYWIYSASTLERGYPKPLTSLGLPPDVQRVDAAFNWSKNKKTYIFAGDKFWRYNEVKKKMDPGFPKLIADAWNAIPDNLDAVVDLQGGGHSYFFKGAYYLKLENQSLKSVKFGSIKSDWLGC

Prothrombin = Prothrombin (Bos taurus, UniProt P00735); experiment: thrombin protease inhibitors – biochemical, fluorescence polarization, uHTS hits, dose response (AID 602369); assay type: functional
[9] = NIH-3T3 fibroblast cytotoxicity, dose response, cytotoxicity control, cell-based, fluorescence, Alamar Blue, secondary assay (AID 2327); assay type: functional;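 also: NIH-3T3 mouse fibroblasts cultured with fluconazole at 8 µg/mL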
[10] = fluconazole-exposed Candida albicans growth modulators – fluorescence, retest, confirmation (AID 2467); assay type: functional, cell-based
[11] = molecular target: T2, Serine/threonine-protein phosphatase (Candida dubliniensis (strain CD36 / CBS 7987 / NCPF 3949 / NRRLY-17841) (Yeast), UniProt B9W6M3); experiment: blockers of CaCl2-induced CDRE-lacZ signaling – S. cerevisiae, luminescence, secondary, dose response (AID 2388); assay type: functional, cell-based;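 also: yeast reporter cells carrying a calcineurin-responsive lacZ construct stimulated with calcium chloride; luminescent beta-galactosidase reporter signal in whole cells rather than isolated phosphatase activity; potency for inhibition where a drop in reporter signal means calcineurin blockade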
T2 sequence (B9W6M3 whole entry): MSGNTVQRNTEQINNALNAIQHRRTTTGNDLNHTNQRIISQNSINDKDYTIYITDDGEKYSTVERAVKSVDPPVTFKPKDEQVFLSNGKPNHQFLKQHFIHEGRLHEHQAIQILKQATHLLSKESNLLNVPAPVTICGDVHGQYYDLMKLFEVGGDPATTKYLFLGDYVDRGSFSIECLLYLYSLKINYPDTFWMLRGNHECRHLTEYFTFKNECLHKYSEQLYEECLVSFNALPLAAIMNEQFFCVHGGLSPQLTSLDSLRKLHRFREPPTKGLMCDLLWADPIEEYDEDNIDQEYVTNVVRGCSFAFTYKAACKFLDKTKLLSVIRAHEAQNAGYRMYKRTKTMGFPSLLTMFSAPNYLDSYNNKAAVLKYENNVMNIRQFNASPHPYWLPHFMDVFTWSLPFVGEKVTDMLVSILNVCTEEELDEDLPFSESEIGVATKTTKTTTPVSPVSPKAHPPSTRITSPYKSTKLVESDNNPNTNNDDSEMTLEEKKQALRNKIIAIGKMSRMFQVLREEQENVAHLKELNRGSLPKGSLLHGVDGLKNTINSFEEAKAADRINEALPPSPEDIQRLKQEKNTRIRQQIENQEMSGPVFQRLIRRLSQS

Nonstructural protein 1 = Nonstructural protein 1 (Influenza A virus, UniProt Q194T2); assay type: functional, Influenza A virus (A/California/07/2009(H1N1))
Nonstructural protein 1, sequence (Q194T2 whole entry): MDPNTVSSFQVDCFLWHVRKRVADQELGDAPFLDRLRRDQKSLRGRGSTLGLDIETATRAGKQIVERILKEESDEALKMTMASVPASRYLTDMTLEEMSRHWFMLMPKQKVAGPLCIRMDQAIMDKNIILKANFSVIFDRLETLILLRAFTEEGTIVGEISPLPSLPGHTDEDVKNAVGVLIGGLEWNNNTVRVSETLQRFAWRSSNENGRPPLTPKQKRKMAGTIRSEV

[12] = molecular target: ATP-dependent molecular chaperone HSP82 (Candida albicans (strain WO-1) (Yeast), UniProt C4YTQ8); experiment: steroid-induced GRE reporter decrease in yeast – S. cerevisiae, luminescence, Hsp90 inhibitor project, dose response (AID 2400); assay type: functional, cell-based;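 also: beta-galactosidase luminescence from glucocorticoid response element reporter as proxy for Hsp90 function; inhibitor potency where signal loss means Hsp90 inhibition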
ATP-dependent molecular chaperone HSP82, sequence (C4YTQ8 whole entry): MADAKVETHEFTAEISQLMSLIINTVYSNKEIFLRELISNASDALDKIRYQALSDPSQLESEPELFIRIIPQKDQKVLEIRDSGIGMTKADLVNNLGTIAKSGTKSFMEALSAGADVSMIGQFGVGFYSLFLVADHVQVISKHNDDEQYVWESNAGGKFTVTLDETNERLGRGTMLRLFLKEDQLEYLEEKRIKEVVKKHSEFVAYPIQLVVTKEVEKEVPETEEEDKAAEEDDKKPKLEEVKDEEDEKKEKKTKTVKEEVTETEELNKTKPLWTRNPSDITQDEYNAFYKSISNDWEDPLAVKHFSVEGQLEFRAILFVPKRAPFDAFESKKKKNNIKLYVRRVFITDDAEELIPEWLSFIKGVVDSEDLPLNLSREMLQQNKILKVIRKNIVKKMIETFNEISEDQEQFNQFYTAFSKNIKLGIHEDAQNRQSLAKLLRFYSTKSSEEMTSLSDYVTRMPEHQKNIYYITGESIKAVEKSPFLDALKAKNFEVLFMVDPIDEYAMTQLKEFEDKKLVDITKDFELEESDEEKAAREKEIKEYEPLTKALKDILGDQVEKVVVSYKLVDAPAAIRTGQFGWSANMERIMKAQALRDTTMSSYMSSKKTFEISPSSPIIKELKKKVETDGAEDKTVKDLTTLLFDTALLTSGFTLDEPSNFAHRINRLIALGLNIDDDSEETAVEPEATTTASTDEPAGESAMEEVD

[13] = microbe, parasite or virus in culture; assay type: functional; settings: Mycobacterium tuberculosis
Beta-galactosidase = Beta-galactosidase (Escherichia coli, UniProt Q8VNN2); experiment: Dose response counterscreen for EBI2 assay utilizing the enzyme, b-galactosidase.; assay type: functional
Beta-galactosidase, sequence (Q8VNN2 whole entry): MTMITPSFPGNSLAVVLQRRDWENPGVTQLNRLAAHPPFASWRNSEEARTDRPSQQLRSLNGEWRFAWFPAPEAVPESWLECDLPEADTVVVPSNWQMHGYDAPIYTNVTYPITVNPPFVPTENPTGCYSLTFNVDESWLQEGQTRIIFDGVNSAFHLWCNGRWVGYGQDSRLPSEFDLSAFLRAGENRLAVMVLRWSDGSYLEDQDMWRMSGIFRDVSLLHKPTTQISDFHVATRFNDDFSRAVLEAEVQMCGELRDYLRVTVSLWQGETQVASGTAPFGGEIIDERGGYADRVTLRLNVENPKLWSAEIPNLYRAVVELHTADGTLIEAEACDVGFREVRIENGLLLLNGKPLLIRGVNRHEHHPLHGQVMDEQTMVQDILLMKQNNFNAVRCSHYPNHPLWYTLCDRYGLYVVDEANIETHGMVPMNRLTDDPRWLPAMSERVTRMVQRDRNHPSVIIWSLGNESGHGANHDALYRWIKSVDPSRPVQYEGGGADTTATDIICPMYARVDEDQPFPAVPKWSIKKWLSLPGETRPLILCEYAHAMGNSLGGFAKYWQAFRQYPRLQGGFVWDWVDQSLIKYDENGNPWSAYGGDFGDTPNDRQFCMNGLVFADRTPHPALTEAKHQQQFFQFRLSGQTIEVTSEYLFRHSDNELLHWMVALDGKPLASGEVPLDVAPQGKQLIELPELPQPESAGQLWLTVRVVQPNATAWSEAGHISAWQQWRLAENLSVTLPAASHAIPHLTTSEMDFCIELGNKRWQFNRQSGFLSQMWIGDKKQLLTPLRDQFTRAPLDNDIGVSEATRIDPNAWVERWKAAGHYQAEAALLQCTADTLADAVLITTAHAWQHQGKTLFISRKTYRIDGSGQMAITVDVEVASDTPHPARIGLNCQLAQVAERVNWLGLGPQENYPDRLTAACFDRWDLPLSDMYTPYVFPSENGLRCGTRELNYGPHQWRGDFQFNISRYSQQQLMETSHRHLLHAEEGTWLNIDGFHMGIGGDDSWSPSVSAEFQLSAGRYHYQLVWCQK

Compound	IC50 [2]	IC50 [3]	IC50 [4]	IC50 [7]	IC50 [8]	IC50 (Prothrombin)	further results
CC(=O)c1c(O)cc(O)c(C(C)=O)c1O	3.24 µM (active)						EC50 [1]: 3.9 µM (active); EC50 (Streptococcus): 3.98 µM (active)
COc1cc(/C=C2\CCCc3c2nc2ccccc2c3C(=O)O)cc(Cl)c1O		4.82 µM (active)	2.96 µM (active)				
CCCCCCCN1C2=NCCCN2c2ccccc21							AC50 [5]: 46 µM (active); AC50 [6]: 11.8 µM (active); IC50 (Protein Wnt-3a): 12.6 µM (active)
COc1cccc(NC2=Nc3cccc4cccc2c34)c1		27.7 µM (inactive)	41.3 µM (inactive)	27.6 µM (active)	> 100 µM (inactive)	37.8 µM (active)	
CCC(=O)NC(c1cccs1)c1cc([N+](=O)[O-])c2cccnc2c1O (centres undefined)	2.47 µM (active)			40.3 µM (active)	5.91 µM (active)	> 100 µM (inactive)	EC50 [9]: 33.6 µM (active); EC50 [10]: 0.185 µM (active); EC50 [11]: > 180 µM (inactive); IC50 (Nonstructural protein 1): 6.66 µM (active); EC50 [12]: 24 µM (active)
CCOC(=O)c1ccc(/N=c2\sc(C(=O)OC)cc(=O)n2CCCN2CCOCC2)cc1							CC50 [13]: > 40 µM (active); IC50 (Beta-galactosidase): > 80 µM (inactive)
